# Measurements taken from patent US7169770B2, “Method of enhancing reproductive performance in sows” (priority 2001, dated 2007).
# Like-named read-outs stand apart in the source and are kept apart here.
# Assays:
# [1] = test system: sows (PIC Line C22); assay: Sow feeding trial: L-carnitine and/or chromium tris-picolinate top dress over two parities, reproductive performance; assay type: in vivo; details: for First service FR %: first service farrowing rate; for No. of sows Weaned parity 1: Second parity section; for first service farrowing rate: parity 2; for No. of sows Farrowed in parity 1 / No. of sows Farrowed in parity 2 / Number of sows removed from experiment: sow longevity table
# Method: This experiment was conducted on a commercial 1,500 sow farrow-to-wean operation in central Kansas and used 599 sows (PIC Line C22). Experimental treatments were arranged in a 2×2 factorial with main effects of added L-carnitine (0 or 50 ppm) and chromium tris-picolinate (0 or 200 ppb). Sows were started on test on the first day of breeding. Each sow remained on the same treatment through gestation, lactation, and through a second gestation period (2 parities). During gestation, all sows were fed a grain sorghum-soybean meal-based diet formulated to contain 0.65% lysine, 0.83% Ca, and 0.76% P. In lactation, all sows were fed a grain sorghum-soybean meal based diet formulated to contain 1.10% lysine, 0.90% Ca, and 0.80% P (Table 3). Dietary treatments were provided via a corn-based top dress fed at 30 g/d. The top dress was formulated to provide 90 mg/d and 250 mg/d carnitine in gestation and lactation, respectively. Chromium tris-picolinate was provided at 360 mcg/d and 1,000 mcg/d during gestation and lactation, respectively. These inclusions were calculated to provide 50 mg/kg carnitine (CarniFeed, Lonza Inc., NJ) and 200 mcg/kg chromium (Chromapure, Lonza Inc., NJ) when sows were fed 4 lb/d of the gestation diet and 11 lb/d of the lactation diet. The top dress was added to the top of the feed box between meals in order to be consumed with the rest of the diet. The top dress was color-coded (1% dyed corncobs) by treatment to assure proper distribution of experimental treatments.
# At farrowing, the number of pigs born alive, as stillborn, as mummies, and total born were recorded. Total born was the sum of the number of pigs born alive, stillborn, and mummies. Sows were rebred after weaning (15 d lactation) and remained on the same treatment until farrowing a second litter. […] Sows that were bred at the start of the study, but were later found open, were removed from the trial. Procedures and data collection were identical for the second gestation and lactation period. However, dietary treatments were not administered during the second lactation period.
# Calculations were made to determine the total number of pigs born, born alive, as stillborns, or as mummies per sow for the two parities. Total number of pigs were calculated using only sows that initially farrowed, then completed the second parity, as well as calculated from all the sows that were actually started on test.
# Data were analyzed using the MIXED procedure of SAS. Sow was the experimental unit for the analysis with parity, previous lactation length, and/or week of farrowing as a covariate (Table IV) for total born, number of pigs born alive, mummies, and stillborn. A chi-square statistic was calculated to determine differences among treatments when analyzing percent in estrus and farrowing rate.
# [2] = test system: sows; details: cited from earlier work
# [3] = test system: sows; details: 200 μg/kg of chromium fed to sows; Lindemann et al. (1995b); cited from earlier work
# [4] = all sows started on test for two parities
# [5] = sows that completed parity one, two parities
# [6] = L-carnitine added to gestating sow diets, Musser et al. (1999b)
# [7] = 200 μg/kg of chromium, Lindemann et al. (1995b), Hagen et al. (2000)
Compound,% estrus by d 7 ([1]; First parity),% estrus by d 18 ([1]; First parity),No. of pigs Born alive ([1]; First parity),No. of pigs Mummies ([1]; First parity),No. of pigs Stiliborn ([1]; First parity),No. of pigs Total born ([1]; First parity),No. of sows Farrowed ([1]; First parity),WEI d (wean to estrus interval) ([1]; First parity),First service FR % ([1]; First parity),% estrus by d 7 ([1]; Second parity),% estrus by d 18 ([1]; Second parity),No. of pigs Born alive ([1]; Second parity),No. of pigs Mummies ([1]; Second parity),No. of pigs Stiliborn ([1]; Second parity),No. of pigs Total born ([1]; Second parity),No. of sows Bred by d 18 ([1]; Second parity),No. of sows Farrowed ([1]; Second parity),Percentage of weaned parity 1 sows that farrowed parity 2 ([1]; Second parity),WEI (wean to estrus interval) ([1]; Second parity),No. of sows Weaned parity 1 [1],other results
"C[N+](C)(C)C[C@H](O)CC(=O)[O-] [Carnitine, L-carnitine]",88.6%,91.5%,9.8,0.26,0.98,11.4,140,4.6 days,91.9%,76.9%,80.8%,9.9,0.33,1.02,11.2,128,104,73.9%,4.7,140,"First service FR % ([1]; Second parity): 81.3%; Total pigs per sow, Born alive [1, 4]: 16.3; Total pigs per sow, Mummies [1, 4]: 0.5; Total pigs per sow, Stillborn [1, 4]: 1.6; Total pigs per sow, Total born [1, 4]: 18.4; first service farrowing rate ([1]; result in words): did not influence; No. of sows Farrowed in parity 1 [1]: 140; No. of sows Farrowed in parity 2 [1]: 104; Number of sows removed from experiment [1]: 46; Total pigs per sow, Born alive [1, 5]: 17.6; Total pigs per sow, Mummies [1, 5]: 0.5; Total pigs per sow, Stillborn [1, 5]: 1.7; Total pigs per sow, Total born [1, 5]: 19.8; farrowing rate, total number of pigs born or born alive ([2]; 50 mg/kg of carnitine during lactation, three experiments, Musser et al. (1999a)): minimal differences; farrowing rate [2, 6]: no effect; number of pigs born alive in the subsequent parity [2, 6]: increase; total number of pigs born and born alive ([2]; L-carnitine fed during gestation, Musser et al. (1999a)): increases"
chromium tris-picolinate,86.7%,91.7%,10.2,0.39,1.26,11.5,138,4.7 days,95.5%,81.0%,82.9%,9.5,0.40,1.09,11.0,127,102,74.3%,4.6,138,"plasma insulin and insulin to glucose ratio [3]: decreased; First service FR % ([1]; Second parity): 79.7%; Total pigs per sow, Born alive [1, 4]: 16.2; Total pigs per sow, Mummies [1, 4]: 0.7; Total pigs per sow, Stillborn [1, 4]: 2.0; Total pigs per sow, Total born [1, 4]: 18.8; farrowing rate ([1]; our study, result in words): increases; number born alive ([1]; our study, result in words): no improvements; number of stillborn pigs per litter ([1]; our study, result in words): tendencies to increase; first service farrowing rate ([1]; result in words): did not influence; No. of sows Farrowed in parity 1 [1]: 138; No. of sows Farrowed in parity 2 [1]: 102; Number of sows removed from experiment [1]: 45; Total pigs per sow, Born alive [1, 5]: 16.8; Total pigs per sow, Mummies [1, 5]: 0.6; Total pigs per sow, Stillborn [1, 5]: 2.1; Total pigs per sow, Total born [1, 5]: 19.5; farrowing rate [2, 7]: no effects; number of pigs born alive [2, 7]: increases"
